US20250213558A1, “T-TYPE CALCIUM CHANNEL MODULATORS COMPRISING A PIPERAZINE OR 1,4-DIAZEPANE CORE AND METHODS OF USE THEREOF” (Praxis Precision Medicines, Inc., priority 2022, published 2025)

Target: T1, Human Cav3.1 calcium channel (Homo sapiens, UniProt O43497)
T1 construct: expressed in transfected cells; host or cells: HEK-293 natClytin/TASK1+Cav3.1 cell line
Assay: Human Cav3.1 calcium channel patch clamp assay (SyncroPatch 384PE; single point and IC50, voltage dependent block)
Type: cell-based
Details: not given
Procedure: Certain compounds (as indicated) were tested for Human Cav3.1 calcium channel activity via a patch clamp assay as disclosed herein.
Pulse generation and data collection were performed with PatchController384 V1.3.0 and DataController384 V1.2.1 (Nanion Technologies). Offline analysis was performed using Excel and Graphpad Prism (V 8.4.2) with complete data files uploaded to Dotmatics. The access resistance and apparent membrane capacitance were estimated using built-in protocols. Current was recorded in whole cell configuration from a population of cells. The cells were lifted, triturated, and resuspended at 800,000 cells/ml. The cells were allowed to recover in the cell hotel prior to experimentation. Currents were recorded at room temperature. The external solution contained the following (in mM): NaCl 80, NMDG 60, KCl 4, MgCl2 1, CaCl2 6, glucose 5 and HEPES 10 (pH=7.4, Osmolarity˜300 mOsm). The extracellular solution was used as the wash, reference and compound delivery solution.
The compound plate was created at 2× concentrated in the extracellular solution. The compound was diluted to 1:2 when added to the recording well. The amount of DMSO in the extracellular solution was held constant at the level used for the highest tested concentration. For the voltage clamp experiments on Cav3.1, data were sampled at 10 KHz. After establishment of the seal and the passage in the whole cell configuration, the cells were held at −120 mV. Cav3.1 current was evoked using a 100 ms step to −20 mV (to measure resting state block), followed by a 1600 ms step to −65 mV and a second 100 ms step to −20 mV (to measure voltage dependent block). The voltage protocol was applied every 15 seconds in the absence and in the presence of the compounds under investigation. […] Current amplitude (pA) was measured in the peak 1 and 2. The average of last 3 sweeps of each liquid period (vehicle, compound under investigation, full block) was calculated. Nickel-sensitive current was used to calculate the % of inhibition in the presence of the compound under investigation.

T1 sequence (O43497 whole entry): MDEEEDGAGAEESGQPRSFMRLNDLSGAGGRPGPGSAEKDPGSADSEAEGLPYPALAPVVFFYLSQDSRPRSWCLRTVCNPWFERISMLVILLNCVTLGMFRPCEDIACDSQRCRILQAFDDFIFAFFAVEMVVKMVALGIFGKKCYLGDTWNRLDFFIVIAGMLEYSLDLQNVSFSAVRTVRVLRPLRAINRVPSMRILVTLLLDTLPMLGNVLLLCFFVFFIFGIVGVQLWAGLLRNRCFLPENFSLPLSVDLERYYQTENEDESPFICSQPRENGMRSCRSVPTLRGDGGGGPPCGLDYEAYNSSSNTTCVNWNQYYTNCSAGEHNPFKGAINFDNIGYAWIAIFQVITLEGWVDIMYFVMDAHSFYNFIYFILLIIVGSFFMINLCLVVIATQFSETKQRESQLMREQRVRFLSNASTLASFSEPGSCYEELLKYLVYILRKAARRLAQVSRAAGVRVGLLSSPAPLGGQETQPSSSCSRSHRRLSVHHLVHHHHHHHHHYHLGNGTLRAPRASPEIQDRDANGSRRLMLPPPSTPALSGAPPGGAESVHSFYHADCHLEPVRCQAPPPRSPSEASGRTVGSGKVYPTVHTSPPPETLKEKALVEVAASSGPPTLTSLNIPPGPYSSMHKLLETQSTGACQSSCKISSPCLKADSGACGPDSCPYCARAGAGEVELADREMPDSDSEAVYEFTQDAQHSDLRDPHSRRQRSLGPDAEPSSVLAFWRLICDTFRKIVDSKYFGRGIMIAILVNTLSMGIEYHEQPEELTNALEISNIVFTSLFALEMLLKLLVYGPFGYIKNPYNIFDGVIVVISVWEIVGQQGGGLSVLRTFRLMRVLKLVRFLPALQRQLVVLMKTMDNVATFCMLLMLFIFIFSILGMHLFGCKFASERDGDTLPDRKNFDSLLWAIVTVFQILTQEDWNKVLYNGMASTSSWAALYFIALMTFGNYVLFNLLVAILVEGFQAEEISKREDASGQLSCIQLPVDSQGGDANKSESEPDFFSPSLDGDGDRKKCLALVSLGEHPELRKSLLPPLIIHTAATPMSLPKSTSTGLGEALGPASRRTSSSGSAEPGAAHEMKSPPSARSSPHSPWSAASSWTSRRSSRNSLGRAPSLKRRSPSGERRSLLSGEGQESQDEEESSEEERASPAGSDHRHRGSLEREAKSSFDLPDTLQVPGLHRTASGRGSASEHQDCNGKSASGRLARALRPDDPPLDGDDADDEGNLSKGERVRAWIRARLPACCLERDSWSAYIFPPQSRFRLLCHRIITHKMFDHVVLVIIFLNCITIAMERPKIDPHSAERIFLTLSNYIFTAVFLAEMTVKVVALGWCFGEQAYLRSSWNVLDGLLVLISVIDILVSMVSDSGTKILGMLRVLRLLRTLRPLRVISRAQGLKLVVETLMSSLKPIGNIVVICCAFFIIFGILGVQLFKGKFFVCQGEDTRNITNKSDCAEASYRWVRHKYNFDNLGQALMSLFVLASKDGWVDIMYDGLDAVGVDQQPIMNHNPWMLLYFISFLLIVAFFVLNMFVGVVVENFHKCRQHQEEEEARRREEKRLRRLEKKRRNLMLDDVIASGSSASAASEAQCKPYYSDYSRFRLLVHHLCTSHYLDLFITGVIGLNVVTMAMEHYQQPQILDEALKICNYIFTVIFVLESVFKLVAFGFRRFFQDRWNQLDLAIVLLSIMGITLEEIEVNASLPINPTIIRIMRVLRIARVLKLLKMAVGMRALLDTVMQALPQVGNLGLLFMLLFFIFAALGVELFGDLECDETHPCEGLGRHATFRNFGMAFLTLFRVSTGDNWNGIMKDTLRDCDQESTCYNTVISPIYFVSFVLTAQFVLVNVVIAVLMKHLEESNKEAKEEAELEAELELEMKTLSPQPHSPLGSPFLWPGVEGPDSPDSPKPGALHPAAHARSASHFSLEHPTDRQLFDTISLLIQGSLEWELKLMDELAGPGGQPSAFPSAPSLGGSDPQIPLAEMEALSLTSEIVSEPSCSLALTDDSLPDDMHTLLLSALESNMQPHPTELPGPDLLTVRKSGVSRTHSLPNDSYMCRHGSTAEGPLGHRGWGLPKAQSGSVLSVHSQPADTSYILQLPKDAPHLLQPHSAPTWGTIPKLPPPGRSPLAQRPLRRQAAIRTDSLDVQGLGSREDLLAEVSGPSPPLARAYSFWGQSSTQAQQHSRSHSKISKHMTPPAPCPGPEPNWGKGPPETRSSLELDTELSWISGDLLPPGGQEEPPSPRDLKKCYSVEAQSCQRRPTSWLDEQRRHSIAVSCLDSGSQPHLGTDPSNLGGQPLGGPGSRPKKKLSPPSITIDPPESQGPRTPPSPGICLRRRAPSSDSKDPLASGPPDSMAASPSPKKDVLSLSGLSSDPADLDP

Row | Compound | IC50 [nM]
1 | O=C(CN1C2CC1CN(Cc1nc3c(Cl)cc(F)cc3[nH]1)C2)NC1(C(F)(F)F)COC1 [Compound 182] | 64.8
2 | CC(C)(C)NC(=O)CN1C2CCC1CN(Cc1nc3c(Cl)cccc3[nH]1)C2 [Compound 189] | < 78.2

Same assay, conditions: Testing Conc 1; HEK-293 natClytin/TASK1+Cav3.1 cell line, patch clamp

Row | % Inhibition (Single Point Data) [%] | Compound
3 | 40.057 | Cc1cc(CNC(=O)CN2CCN(CC(=O)NC(C)(C)C)CC2)nn1-c1ccccc1 [Compound 2]

Same assay, conditions: Testing Conc 1.25; HEK-293 natClytin/TASK1+Cav3.1 cell line, patch clamp

Row | Compound | % Inhibition (Single Point Data) [%]
4 | C[C@H](NC(=O)CN1C[C@@H]2C[C@H]1CN2CC(=O)NC(C)(C)C)C12CC3CC(CC(C3)C1)C2 [Compound 326] | 66.987
5 | N#CC1(CN2C3CC2CN(Cc2nc4c(Cl)ccc(F)c4[nH]2)C3)CCC(F)(F)CC1 [Compound 179] | 32.612
6 | CN(C(=O)CN1C2CC1CN(Cc1nc3c(Cl)cc(F)cc3[nH]1)C2)C(C)(C)CO [Compound 128] | 18.511
7 | CC1(NC(=O)CN2C3CC2CN(CC(=O)Nc2ccc(F)c(Cl)c2)C3)CC1 [Compound 239] | 58.273
8 | CC(C)(C)NC(=O)CN1C[C@@H]2C[C@H]1CN2CC(=O)Nc1cc(Cl)cc(Cl)c1 [Compound 272] | 98.544
9 | CC(C)(C)S(=O)(=O)CCN1C2CC1CN(CC(=O)Nc1cc(F)cc(Cl)c1)C2 [Compound 50] | 57.816
10 | CC(C)(NC(=O)CN1CC2CC1CN2CC(=O)Nc1cc(F)cc(Cl)c1)C(F)(F)F (centres unmarked) [Compound 47] | 89.371
11 | O=C(CN1C2CC1CN(Cc1nc3c(Cl)cc(F)cc3[nH]1)C2)NC1(C(F)(F)F)COC1 [Compound 182] | 92.993
12 | CC(C)(C)NC(=O)CN1C2CC1CN(CC(=O)NC1CCCC(OC(F)F)C1)C2 (centres unmarked) [Compound 321] | 66.321
13 | CC(C)(C)NC(=O)CN1C2CCC1CN(CC(=O)Nc1cc(F)cc(Cl)c1)C2 [Compound 3] | 94.689
14 | COc1cc(Cl)cc(NC(=O)CN2C[C@@H]3C[C@H]2CN3CC(=O)NC(C)(C)C)c1 [Compound 282] | 98.739
15 | OC1(CN2C3CC2CN(Cc2nc4c(Cl)cc(F)cc4[nH]2)C3)CCC(F)(F)CC1 [Compound 151] | 95.252
16 | CC(C)(C)NC(=O)CN1C2CCC1CN(CCc1nc3c(Cl)cc(F)cc3[nH]1)C2 [Compound 195] | 44.852
17 | Cc1cc(F)cc(NC(=O)CN2CC3CC(C2)N3CC(=O)NC2(C(F)(F)F)CC2)c1 [Compound 335] | 84.646
18 | CC(C)(C)NC(=O)CN1C[C@H]2C[C@@H]1CN2CC(=O)Nc1cc(F)cc(Cl)c1 [Compound 59] | 49.275
19 | CC(C)(C)CCN1CCN(Cc2nc3c(Cl)cc(F)cc3[nH]2)CC1 [Compound 73] | 84.745
20 | CC(C)(C)NC(=O)CN1C2CCC1CN(Cc1nc3ccccc3[nH]1)C2 [Compound 188] | 75.55
21 | CC(C)(C)NC(=O)CN1C2CCC1CN(Cc1nc3c(Cl)cccc3[nH]1)C2 [Compound 189] | 92.283
22 | CC(C)(C)NC(=O)CN1C2CCC1CN(CC(=O)NCc1cc3ccccc3o1)C2 [Compound 5] | 22.469
23 | COc1cc(Cl)cc(NC(=O)CN2CC3CC(C2)N3CC(=O)NC2(C(F)(F)F)CC2)c1 [Compound 334] | 79.86
24 | CC(C)(C)NC(=O)CN1C2CCC1CN(Cc1nc(-c3ccccc3)c[nH]1)C2 [Compound 196] | 83.677
25 | COC(=O)C(C)(C)N(C)C(=O)CN1C2CCC1CN(Cc1nc3c(Cl)cc(F)cc3[nH]1)C2 [Compound 85] | 66.404

Row | Compound | % Inhibition (Single Point Data) [%]
26 | O=C(CN1C2CC1CN(Cc1nc3c(Cl)cc(F)cc3[nH]1)C2)OC1CCCC1 [Compound 141] | 100.15
27 | O=C(CN1CC2CC(C1)N2CC(=O)NC1(C(F)(F)F)CC1)Nc1cc(F)cc(Cl)c1 [Compound 170] | 96.908
28 | CC(C)(C)NC(=O)CN1CC2CCC1CCN2Cc1nc2c(Cl)cc(F)cc2[nH]1 (centres unmarked) [Compound 74] | 72.584
29 | OC1(CN2CCN(Cc3nc4c(Cl)ccc(F)c4[nH]3)CC2)CCC(F)(F)CC1 [Compound 159] | 76.669
30 | O=C(CN1C[C@@H]2C[C@H]1CN2CC1(O)CCC(F)(F)CC1)NC12CC3CC(CC(C3)C1)C2 [Compound 277] | 56.486
31 | CC(C)(C)NC(=O)CN1C2CC1CN(C(=O)NC13CC4CC(CC(C4)C1)C3)C2 [Compound 303] | 23.993
32 | CC1(NC(=O)CN2C3CC2CN(Cc2nc4c(Cl)ccc(F)c4[nH]2)C3)COC1 [Compound 174] | 75.268
33 | CC(C)(C)NC(=O)CN1C[C@@H]2C[C@H]1CN2C(=O)NC12CC3CC(CC(C3)C1)C2 [Compound 304] | 25.21
34 | COc1cc(F)cc2[nH]c(CN3CC4CC(C3)N4CCC3CCC(F)(F)CC3)nc12 [Compound 158] | 92.557
35 | OC(CN1CCN(Cc2nc3c(Cl)ccc(F)c3[nH]2)CC1)C1CCCCC1 (centres unmarked) [Compound 156] | 86.133
36 | CC(C)(NC(=O)CN1C2CC1CN(CC(=O)Nc1ccc(F)c(Cl)c1)C2)C(F)(F)F [Compound 241] | 101.68
37 | Cc1cc(Cl)cc(NC(=O)CN2CC3CC(C2)N3CC(=O)NC(C)(C)C)c1 [Compound 305] | 101.69
38 | Cc1cccc2[nH]c(C(C)N3CC4CC(C3)N4CC(=O)NC(C)(C)C)nc12 (centres unmarked) [Compound 199] | 54.078
39 | Fc1cc(Cl)c2nc(CN3CC4CCC(C3)N4CCN3CCC(F)(F)CC3)[nH]c2c1 [Compound 90] | 99.043
40 | CC(C(=O)Nc1ccc(F)c(Cl)c1)N1CC2CC(C1)N2CC(=O)NC(C)(C)C (centres unmarked) [Compound 29] | 90.315
41 | O=C1CCCCN1CCN1C2CC1CN(Cc1nc3c(Cl)cc(F)cc3[nH]1)C2 [Compound 120] | 81.802
42 | CC(C)(C)CCN1C2CCC1CN(Cc1nc3c(Cl)cc(F)cc3[nH]1)C2 [Compound 77] | 100.45
43 | COc1cc(NC(=O)CN2CC3CC(C2)N3CC(=O)NC2(C(F)(F)F)CC2)ccc1F [Compound 257] | 89.324
44 | CC(C)(C)NC(=O)CN1C2CC1CN(Cc1nc3c(Cl)cc(N)cc3o1)C2 [Compound 111] | 35.454
45 | Cc1cccc2[nH]c(C(C)N3CC4CCC(C3)N4CC(=O)NC(C)(C)C)nc12 (centres unmarked) [Compound 198] | 71.858
46 | CC1(CCN2C3CC2CN(Cc2nc4c(Cl)cc(F)cc4[nH]2)C3)CCOCC1 [Compound 105] | 73.309

Same assay, conditions: voltage dependent block (VDB); HEK-293 natClytin/TASK1+Cav3.1 cell line; read-out: Cav3.1 IC50

Row | Compound | IC50 [nM]
47 | C[C@H](NC(=O)CN1C[C@@H]2C[C@H]1CN2CC(=O)NC(C)(C)C)C12CC3CC(CC(C3)C1)C2 [Compound 326] | 734
48 | N#CC1(CN2C3CC2CN(Cc2nc4c(Cl)ccc(F)c4[nH]2)C3)CCC(F)(F)CC1 [Compound 179] | 1970
49 | O=C(CN1CC2CC(C1)N2CC(=O)NC1(C(F)(F)F)CC1)Nc1cc(F)c(F)c(Cl)c1 [Compound 349] | < 78.2
50 | CC1(NC(=O)CN2C3CC2CN(CC(=O)Nc2ccc(F)c(Cl)c2)C3)CC1 [Compound 239] | 587
51 | CC(C)(C)NC(=O)CN1C[C@@H]2C[C@H]1CN2CC(=O)Nc1cc(Cl)cc(Cl)c1 [Compound 272] | 71.2
52 | CC(C)(NC(=O)CN1CC2CC1CN2CC(=O)Nc1cc(F)cc(Cl)c1)C(F)(F)F (centres unmarked) [Compound 47] | 33.7
53 | CC(C)(C)NC(=O)CN1C2CC1CN(CC(=O)NC1CCCC(OC(F)F)C1)C2 (centres unmarked) [Compound 321] | 819
54 | CC(C)(C)NC(=O)CN1C2CCC1CN(CC(=O)Nc1cc(F)cc(Cl)c1)C2 [Compound 3] | 273
55 | COc1cc(Cl)cc(NC(=O)CN2C[C@@H]3C[C@H]2CN3CC(=O)NC(C)(C)C)c1 [Compound 282] | 74.8
56 | CC(C)(C)NC(=O)CN1C2CCC1CN(CCc1nc3c(Cl)cc(F)cc3[nH]1)C2 [Compound 195] | 1150
57 | Cc1cc(F)cc(NC(=O)CN2CC3CC(C2)N3CC(=O)NC2(C(F)(F)F)CC2)c1 [Compound 335] | 338
58 | CC(C)(C)NC(=O)CN1C[C@H]2C[C@@H]1CN2CC(=O)Nc1cc(F)cc(Cl)c1 [Compound 59] | 925
59 | CC(C)(C)CCN1CCN(Cc2nc3c(Cl)cc(F)cc3[nH]2)CC1 [Compound 73] | 188
60 | CC(C)(C)NC(=O)CN1C2CCC1CN(Cc1nc3ccccc3[nH]1)C2 [Compound 188] | 485
61 | CC(C)(C)NC(=O)CN1C[C@@H]2C[C@H]1CN2CC(=O)Nc1ccc(Cl)c(OC(F)F)c1 [Compound 357] | 82
62 | COC(=O)C(C)(C)N(C)C(=O)CN1C2CCC1CN(Cc1nc3c(Cl)cc(F)cc3[nH]1)C2 [Compound 85] | 375
63 | O=C(CN1C2CC1CN(Cc1nc3c(Cl)cc(F)cc3[nH]1)C2)OC1CCCC1 [Compound 141] | 162
64 | CC(C)(C)NC(=O)CN1CC2CCC1CCN2Cc1nc2c(Cl)cc(F)cc2[nH]1 (centres unmarked) [Compound 74] | 575
65 | OC1(CN2CCN(Cc3nc4c(Cl)ccc(F)c4[nH]3)CC2)CCC(F)(F)CC1 [Compound 159] | 250
66 | O=C(CN1C[C@@H]2C[C@H]1CN2CC1(O)CCC(F)(F)CC1)NC12CC3CC(CC(C3)C1)C2 [Compound 277] | 886
67 | CC(C)(C)NC(=O)CN1C2CC1CN(C(=O)NC13CC4CC(CC(C4)C1)C3)C2 [Compound 303] | 8850
68 | CC(C)(C)NC(=O)CN1C[C@@H]2C[C@H]1CN2C(=O)NC12CC3CC(CC(C3)C1)C2 [Compound 304] | 4770
69 | COc1cc(F)cc2[nH]c(CN3CC4CC(C3)N4CCC3CCC(F)(F)CC3)nc12 [Compound 158] | 148
70 | Cc1cc(Cl)cc(NC(=O)CN2CC3CC(C2)N3CC(=O)NC(C)(C)C)c1 [Compound 305] | 199
71 | Cc1cccc2[nH]c(C(C)N3CC4CC(C3)N4CC(=O)NC(C)(C)C)nc12 (centres unmarked) [Compound 199] | 864
72 | CC(C(=O)Nc1ccc(F)c(Cl)c1)N1CC2CC(C1)N2CC(=O)NC(C)(C)C (centres unmarked) [Compound 29] | 342
73 | COc1cc(NC(=O)CN2CC3CC(C2)N3CC(=O)NC2(C(F)(F)F)CC2)ccc1F [Compound 257] | 232
74 | Cc1cccc2[nH]c(C(C)N3CC4CCC(C3)N4CC(=O)NC(C)(C)C)nc12 (centres unmarked) [Compound 198] | 415
